# “And” between values parts separate entries of the source, which are not always exact repeats. Equal entries are not always repeated.
# Tests used:
# [1] = system: normal human embryonal lung fibroblast cells (MRC-5); assay: In vitro cytotoxicity MTT assay; type: cell-based; details: Homo sapiens, MRC5, 72 h incubation
# Source text: (§1) Four cell lines were used in this study: the doxorubicin-sensitive Colo205 (CCL-222, ATCC, Manassas, VA, USA) human colon adenocarcinoma cell line; the doxorubicin-resistant Colo320/MDR-LRP expressing P-glycoprotein (P-gp, ABCB1) (MDR1)-LRP (CCL-220.1, ATCC) human colon adenocarcinoma cell line; the hormone-responsive MCF-7 breast cancer cell line and the normal MRC-5 human embryonal lung fibroblast cell line (CCL-171, ATCC). The human cancer cell lines were purchased from LGC Promochem (Teddington, UK), and the MRC-5 cell line is a Sigma-Aldrich (Merck KGaA, Darmstadt, Germany) product. The Colo205 and Colo320 cell lines were cultured in RPMI 1640 medium supplemented with 10% fetal bovine serum (FBS), 2 mM L-glutamine, 1 mM Na-pyruvate and 10 mM HEPES. The MCF-7 and MRC-5 cells were cultured in Eagle's Minimal Essential Medium (EMEM) containing 4.5 g L^−1 of glucose and supplemented with a non-essential amino acid mixture, a selection of vitamins and 10% FBS. All cell lines were incubated at 37 °C, 5% CO2, 95% air atmosphere. The cells were detached with Trypsin-Versene (EDTA) solution for 5 min at 37 °C.
# (§2) Prior to the cytotoxicity assays 10 mM stock solutions of the tested compounds were prepared in DMSO. These stock solutions were diluted with the culture medium (EMEM or RPMI 1640), and twofold serial dilutions of the compounds were prepared in 100 μL of the appropriate medium. […] The positive control was doxorubicin (Merck), and CuCl2 was also tested. All cancer cells were treated with Trypsin-Versene (EDTA) solution. A cell density of 1 × 10^4 cells was adjusted for the colon adenocarcinoma cells in 100 μL of RPMI 1640 medium and were added to each well, except for the medium control wells. The final volume was 200 μL in the wells containing compounds and cells. The MCF-7 and MRC-5 cells were seeded overnight prior to the assay. The following day, the serial dilution of the compounds were made in separate plates and added to the cells. The culture plates were incubated at 37 °C for 72 h; and at the end of the incubation period, 20 μL of 5 mg mL^−1 3-(4,5-dimethylthiazol-2-yl)-2,5-diphenyltetrazolium bromide (MTT) solution was added to each well and incubated for 4 h at 37 °C. The plates were further incubated at 37 °C overnight following the addition of 100 μL of sodium dodecyl sulfate (SDS) solution (10% in 0.01 M HCl). The optical density (OD) was measured at 450 nm (ref. 620 nm) with a Multiscan EX ELISA reader to follow the cell growth. Inhibition of cell growth (expressed as IC50: inhibitory concentration that reduces by 50% the growth of the cells exposed to the tested compounds) was determined from the sigmoid curve, where 100 − ((ODsample − ODmedium control)/(ODcell control − ODmedium control)) × 100 values were plotted against the logarithm of compound concentrations. The sigmoidal dose–response model (comparing variable and fixed slopes) of the GraphPad Prism software[88] was used to fit the curves. The IC50 values are averages from at least 3 independent experiments.
# [2] = system: Colo205 human colon adenocarcinoma cell line; assay: In vitro cytotoxicity MTT assay; type: cell-based; details: Homo sapiens, COLO 205; 72 h incubation, MTT
# Source text: as §1, §2
# [3] = system: doxorubicin-resistant Colo320 human colon adenocarcinoma cell line; assay: In vitro cytotoxicity MTT assay; type: cell-based; details: Homo sapiens, COLO 320; 72 h incubation, MTT
# Source text: as §1, §2
# [4] = system: MCF-7 breast cancer cells; assay: In vitro cytotoxicity MTT assay; type: cell-based, human; details: Homo sapiens, MCF7; 72 h incubation, MTT
# Experimental: The human cancer cell lines were purchased from LGC Promochem (Teddington, UK), and the MRC-5 cell line is a Sigma-Aldrich (Merck KGaA, Darmstadt, Germany) product. […] The MCF-7 and MRC-5 cells were cultured in Eagle's Minimal Essential Medium (EMEM) containing 4.5 g L^−1 of glucose and supplemented with a non-essential amino acid mixture, a selection of vitamins and 10% FBS. […] The cells were detached with Trypsin-Versene (EDTA) solution for 5 min at 37 °C.
# Prior to the cytotoxicity assays 10 mM stock solutions of the tested compounds were prepared in DMSO. […] The positive control was doxorubicin (Merck), and CuCl2 was also tested. All cancer cells were treated with Trypsin-Versene (EDTA) solution. […] The final volume was 200 μL in the wells containing compounds and cells. The MCF-7 and MRC-5 cells were seeded overnight prior to the assay. The following day, the serial dilution of the compounds were made in separate plates and added to the cells. The culture plates were incubated at 37 °C for 72 h; and at the end of the incubation period, 20 μL of 5 mg mL^−1 3-(4,5-dimethylthiazol-2-yl)-2,5-diphenyltetrazolium bromide (MTT) solution was added to each well and incubated for 4 h at 37 °C. The plates were further incubated at 37 °C overnight following the addition of 100 μL of sodium dodecyl sulfate (SDS) solution (10% in 0.01 M HCl). The optical density (OD) was measured at 450 nm (ref. 620 nm) with a Multiscan EX ELISA reader to follow the cell growth. […] The sigmoidal dose–response model (comparing variable and fixed slopes) of the GraphPad Prism software[88] was used to fit the curves. The IC50 values are averages from at least 3 independent experiments.
# [5] = system: purified tubulin; assay: Inhibition of tubulin assembly (turbidity); type: biochemical; details: 10 μM tubulin, 30 °C, turbidity at 350 nm; read-out: Inhibition of tubulin assembly IC50 ± SD
# Experimental: The methods used to determine the IC50 values for tubulin assembly and inhibition of [^3H]colchicine binding were recently described in detail.[96] In brief, for the assembly assay, 0.25 mL reaction mixtures contained 1.0 mg mL^−1 (10 μM) tubulin, 0.8 M monosodium glutamate (pH 6.6 with HCl in 2.0 M stock solution), 4% (v/v) DMSO (compound solvent), varying compound concentrations, and 100 μM GTP. All components except GTP were preincubated at 30 °C for 15 min in a 0.24 mL volume. Reaction mixtures were then placed on ice, and the GTP was added in a 10 μL volume. Assembly was monitored in Beckman DU7400/7500 spectrophotometers equipped with electronic temperature controllers and driven by a custom program. The samples were transferred to cuvettes held at 0 °C, and the temperature was jumped to 30 °C over about 30 s. Change in turbidity was measured for 20 min at 350 nm, and the IC50 was defined as the compound concentration that reduced the extent of reaction by 50%. For the colchicine binding assay, reaction mixtures contained 0.05 mg mL^−1 (0.5 μM) tubulin, 5.0 μM [^3H]colchicine, 5% (v/v) DMSO (compound solvent), compound as indicated, and components found to stabilize the colchicine binding activity of tubulin. […] The filters were counted in a Beckman scintillation counter, with correction for the amount of radiolabel bound to filters in the absence of tubulin.
# [6] = system: tubulin (colchicine site); assay: Inhibition of [3H]colchicine binding to tubulin; details: 0.5 μM tubulin, 5 μM [3H]colchicine
# Experimental: The methods used to determine the IC50 values for tubulin assembly and inhibition of [^3H]colchicine binding were recently described in detail.[96] In brief, for the assembly assay, 0.25 mL reaction mixtures contained 1.0 mg mL^−1 (10 μM) tubulin, 0.8 M monosodium glutamate (pH 6.6 with HCl in 2.0 M stock solution), 4% (v/v) DMSO (compound solvent), varying compound concentrations, and 100 μM GTP. All components except GTP were preincubated at 30 °C for 15 min in a 0.24 mL volume. Reaction mixtures were then placed on ice, and the GTP was added in a 10 μL volume. Assembly was monitored in Beckman DU7400/7500 spectrophotometers equipped with electronic temperature controllers and driven by a custom program. The samples were transferred to cuvettes held at 0 °C, and the temperature was jumped to 30 °C over about 30 s. Change in turbidity was measured for 20 min at 350 nm, and the IC50 was defined as the compound concentration that reduced the extent of reaction by 50%. For the colchicine binding assay, reaction mixtures contained 0.05 mg mL^−1 (0.5 μM) tubulin, 5.0 μM [^3H]colchicine, 5% (v/v) DMSO (compound solvent), compound as indicated, and components found to stabilize the colchicine binding activity of tubulin. Incubation was for 10 min at 37 °C, at which time the amount of colchicine bound to the tubulin is 40–60% of maximum. Each reaction mixture was diluted with 2.0 mL of ice cold water and poured onto a single Whatman DEAE-cellulose filter (tubulin binds tightly to the filter, and unbound colchicine passes through). Gravity filtration was used for the samples, and the filters were then washed with three 2.0 mL aliquots of ice cold water (vacuum aspiration). The filters were counted in a Beckman scintillation counter, with correction for the amount of radiolabel bound to filters in the absence of tubulin.
SMILES,IC50 [1],IC50 [2],IC50 [3],IC50 [4],IC50 [5],Inhibition of colchicine binding % inhibition ± SD ([6]; 0.5 μM inhibitor),Inhibition of colchicine binding % inhibition ± SD ([6]; 5 μM inhibitor)
"COc1cccc2c1C(=O)c1c(O)c3c(c(O)c1C2=O)C[C@@](O)(C(=O)CO)C[C@@H]3O[C@H]1C[C@H](N)[C@H](O)[C@H](C)O1 [Doxorubicin, doxorubicin, reference compound]",1160 ± 110 nM,820 ± 20 nM,3300 ± 100 nM,210 ± 30 nM,–,–,–
"COc1ccc(/C=C\c2cc(OC)c(OC)c(OC)c2)cc1O [CA-4, combretastatin A-4, reference compound]",–,–,–,–,[…],81 ± 4%,98 ± 0.9%

# Source: paper PMC10368209, “Indolo[2,3-e]benzazocines and indolo[2,3-f]benzazonines and their copper(II) complexes as microtubule destabilizing agents” (Dalton Transactions (Cambridge, England : 2003), 2023)
